In PMC10043345, “Discovery of BAR502, as potent steroidal antagonist of leukemia inhibitory factor receptor for the treatment of pancreatic adenocarcinoma” (Frontiers in Oncology, 2023):

Tests used:
FXR = target: T1, FXR (Homo sapiens, UniProt Q96RI1); experiment: FXR transactivation (FXR/RXR, hsp27 IR1-luciferase) in HepG2 cells; assay type: cell-based
T1 construct: expressed in transfected cells; host or cells: HepG2
T1 sequence (Q96RI1 1-486): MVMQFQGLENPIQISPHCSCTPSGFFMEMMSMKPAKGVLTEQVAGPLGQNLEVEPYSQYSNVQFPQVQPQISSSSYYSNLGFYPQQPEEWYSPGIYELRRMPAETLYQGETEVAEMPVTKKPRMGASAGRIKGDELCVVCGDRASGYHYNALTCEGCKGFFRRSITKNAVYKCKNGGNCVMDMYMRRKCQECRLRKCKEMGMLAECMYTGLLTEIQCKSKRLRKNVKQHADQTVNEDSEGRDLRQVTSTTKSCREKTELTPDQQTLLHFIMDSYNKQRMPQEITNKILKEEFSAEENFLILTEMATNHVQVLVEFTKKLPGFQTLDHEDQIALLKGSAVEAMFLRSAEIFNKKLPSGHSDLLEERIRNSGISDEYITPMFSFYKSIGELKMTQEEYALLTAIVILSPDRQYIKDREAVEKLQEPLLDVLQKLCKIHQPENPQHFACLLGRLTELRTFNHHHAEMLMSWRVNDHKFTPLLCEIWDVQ
T1 sequence (P19793 1-462 partner): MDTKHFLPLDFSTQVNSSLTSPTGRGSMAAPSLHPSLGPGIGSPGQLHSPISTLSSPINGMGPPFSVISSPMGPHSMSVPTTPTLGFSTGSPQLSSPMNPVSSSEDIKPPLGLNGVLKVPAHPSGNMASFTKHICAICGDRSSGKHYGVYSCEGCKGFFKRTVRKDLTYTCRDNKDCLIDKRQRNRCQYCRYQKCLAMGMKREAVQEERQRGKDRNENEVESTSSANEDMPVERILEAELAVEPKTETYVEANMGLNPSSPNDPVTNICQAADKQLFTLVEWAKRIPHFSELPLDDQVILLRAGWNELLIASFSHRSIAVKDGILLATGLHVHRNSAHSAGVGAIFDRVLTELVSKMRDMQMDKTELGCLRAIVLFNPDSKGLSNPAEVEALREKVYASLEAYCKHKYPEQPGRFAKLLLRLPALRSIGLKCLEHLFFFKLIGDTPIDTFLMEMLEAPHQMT
Protocol: On day 0, HepG2 were seeded at 7.5 × 10^4 cells/well in a 24-well plate and maintained at 37°C and 5% CO2 in E-MEM supplemented with 10% FBS, 1% glutamine, and 1% penicillin/streptomycin. On day 1, cells were transiently transfected with the reporter plasmid pGL4.47[luc2P/SIE/Hygro] (200 ng) (CAT#: E4041 Promega, Madison, WI, USA), a vector encoding the hLIFR (CAT# RC226327) (100 ng) and CD130 (IL6ST) (100 ng) (CAT#: RC215123, OriGene Technologies, Inc. Rockville, MD, USA), and finally a vector encoding the human RENILLA luciferase gene (pGL4.70) (100 ng) (Promega, Madison, WI, USA). On day 2, cells were exposed to the cytokine LIF (10 ng/mL) alone or in combination with BAR502 (from 0.1 to 20 μM). […] For FXR mediated transactivation, HepG2 cells were plated at 7.5 × 10^4 cells/well in a 24 well plate. Cells were transfected with 200 ng of the reporter vector p(hsp27)-TK-LUC containing a FXR response element (IR1) cloned from the promoter of heat shock protein 27 (hsp27), 100 ng of pSG5-FXR, 100 ng of pSG5-RXR, and 100 ng of pGL4.70 (Promega), a vector encoding the human Renilla gene. To perform STAT3 transactivation, HepG2 were seeded at 7.5× 10^4 cells/well in a 24-well plate. On the day-1, cells were transiently transfected with 200 ng of the reporter plasmid pGL4.47[luc2P/SIE/Hygro] […] Luminescence was measured using a Glomax 20/20 luminometer (Promega, Madison, WI, USA). […]

MIA PaCa-2 cells = experiment: MTS cell proliferation assay; assay type: cell-based, human
Protocol: The cell viability assay was done using the CellTiter 96 Aqueous One Solution Cell Proliferation Assay (Promega, Milano, Italy), a colorimetric method for accessing the number of viable cells in proliferation as described previously ([13]). MIA-PaCa 2 cells were seeded in DMEM complete medium at 36 *10^3 cells/100 uL well into 96-well tissue culture plate. After 24 h, cells were serum starved for 24 h and then were primed with the LIFR major ligand, LIF (10 ng/ml) alone or in combination with BAR502 (5,10 and 20 μM) or only with vehicle. In another experimental setting, MIA-PaCa 2 cells were triggered with PDL103 (10 μM) alone, LIF (10 ng/ml) alone or plus PDL103 or BAR502 (10 μM) or both. In a different setting cell were exposed to an antagonist of the Farnesoid X receptor (FXR), 3-(naphthalen-2-yl)-5-(piperidin-4-yl)-1,2,4-oxadiazole (GP7) (10 µM) ([54]), LIF (10 ng/ml) alone or in combination with GP7 or BAR502 or both. Then cell proliferation assessed as mentioned above. Absorbance was measured using a 96 well reader spectrophotometer (490 nm). In these experiments each experimental setting was replicated ten folds. For analysis the background readings with the medium alone, were subtracted from the samples read-outs.

IC50 (FXR; read-out: HepG2 FXR/RXR Antagonism IC50) | Structure (SMILES) | EC50 (FXR; transactivation, agonism, read-out: FXR EC50 Transact) | effect on LIF-induced proliferation (MTS) (MIA PaCa-2 cells; LIF 10 ng/mL + BAR502 5, 10, 20 µM, 24 h, serum free) | effect of PDL103 co-treatment on BAR502 action on LIF/LIFR induced proliferation and EMT (MIA PaCa-2 cells; PDL103 10 μM + BAR502 10 μM + LIF 10 ng/ml)
 | CC[C@H]1[C@@H](O)C2C3CC[C@H]([C@H](C)CCO)[C@@]3(C)CCC2[C@@]2(C)CC[C@@H](O)C[C@@H]12 (stereo partly shown) [BAR502] | 3 ± 1 µM | reversed the LIF-proliferative effect in a concentration-dependent manner | 
10 µM | OCc1ccc(-c2ccc(OCc3cc(-c4c(Cl)cccc4Cl)no3)cc2)cc1 [PDL103, (4’-((3-(2,6-dichlorophenyl)isoxazol-5-yl)methoxy)-[1,1’-biphenyl]-4-yl)methanol] |  |  | failed to reverse the effect of BAR502
